Test results published in US20260000692A1, “Substituted N-(Pyridin-2-yl)Acetamide Derivatives as CDK12/13 Inhibitors” (Aurigene Oncology Limited, priority 2022, published 2026).

Molecular target: CDK12 (Homo sapiens, UniProt Q9NYV4)
Assay: Biochemical assay for CDK12 (LANCE TR-FRET, IC50 determination)
Details: for IC50: CDK12, IC50 class, read-out: IC50 μM (in range); for inhibition at 10 µM / CDK12 % Inhibition @ 10 μM: compound at 10 μM; for inhibition at 10 µM: read-out: CDK12 % Inhibition @ 10 μM
Summary of the method: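 30 nM CDK12 phosphorylated 100 nM ULight-4E-BP1 (Thr37/Thr46) peptide at 100 µM ATP, as printed, in HEPES pH 7.5 buffer with MgCl2 and DTT. Compound and enzyme were preincubated 60 min, then reacted 60 min at room temperature before stopping with EDTA and Eu anti-phospho antibody. TR-FRET 665/615 ratio gave sigmoidal IC50 fits.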

Chain of CDK12 (Q9NYV4 whole entry): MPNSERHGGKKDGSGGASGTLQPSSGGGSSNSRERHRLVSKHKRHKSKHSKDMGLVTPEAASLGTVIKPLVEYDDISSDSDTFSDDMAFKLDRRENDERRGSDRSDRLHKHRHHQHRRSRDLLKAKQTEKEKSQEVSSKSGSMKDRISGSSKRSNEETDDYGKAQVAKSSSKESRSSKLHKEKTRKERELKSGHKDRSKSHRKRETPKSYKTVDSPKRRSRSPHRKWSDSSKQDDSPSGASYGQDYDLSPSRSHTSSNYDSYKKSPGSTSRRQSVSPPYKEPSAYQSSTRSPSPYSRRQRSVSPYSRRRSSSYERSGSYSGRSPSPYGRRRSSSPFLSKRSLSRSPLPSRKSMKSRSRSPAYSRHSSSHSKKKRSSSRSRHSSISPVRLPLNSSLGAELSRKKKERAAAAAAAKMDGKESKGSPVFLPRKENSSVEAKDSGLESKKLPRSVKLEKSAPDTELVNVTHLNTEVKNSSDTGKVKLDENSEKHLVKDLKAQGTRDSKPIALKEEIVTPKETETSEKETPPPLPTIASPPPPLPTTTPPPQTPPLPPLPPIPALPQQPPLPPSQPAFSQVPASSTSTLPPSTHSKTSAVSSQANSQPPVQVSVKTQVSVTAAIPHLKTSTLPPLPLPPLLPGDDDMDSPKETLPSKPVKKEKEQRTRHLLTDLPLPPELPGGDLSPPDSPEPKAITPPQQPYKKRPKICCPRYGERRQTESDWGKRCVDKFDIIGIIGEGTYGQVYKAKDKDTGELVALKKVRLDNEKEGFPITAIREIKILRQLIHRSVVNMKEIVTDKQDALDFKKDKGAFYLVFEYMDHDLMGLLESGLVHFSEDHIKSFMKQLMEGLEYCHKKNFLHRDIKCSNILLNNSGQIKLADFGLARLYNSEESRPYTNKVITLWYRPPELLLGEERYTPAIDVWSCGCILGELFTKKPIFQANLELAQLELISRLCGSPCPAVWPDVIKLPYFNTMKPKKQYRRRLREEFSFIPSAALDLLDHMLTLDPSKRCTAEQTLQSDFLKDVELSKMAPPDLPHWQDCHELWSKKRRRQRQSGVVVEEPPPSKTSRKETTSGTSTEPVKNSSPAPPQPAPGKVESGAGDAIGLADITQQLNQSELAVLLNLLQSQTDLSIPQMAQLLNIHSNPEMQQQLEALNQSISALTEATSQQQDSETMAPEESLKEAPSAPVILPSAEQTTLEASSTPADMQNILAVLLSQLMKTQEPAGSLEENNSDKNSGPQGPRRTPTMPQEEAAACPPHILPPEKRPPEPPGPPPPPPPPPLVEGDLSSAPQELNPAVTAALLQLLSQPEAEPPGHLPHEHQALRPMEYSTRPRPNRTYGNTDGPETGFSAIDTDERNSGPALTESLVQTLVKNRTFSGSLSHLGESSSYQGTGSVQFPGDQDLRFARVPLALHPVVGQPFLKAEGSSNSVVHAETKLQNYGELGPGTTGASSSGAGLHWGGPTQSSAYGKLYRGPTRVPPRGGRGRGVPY
Chain of CDK12 (O75909 whole entry partner): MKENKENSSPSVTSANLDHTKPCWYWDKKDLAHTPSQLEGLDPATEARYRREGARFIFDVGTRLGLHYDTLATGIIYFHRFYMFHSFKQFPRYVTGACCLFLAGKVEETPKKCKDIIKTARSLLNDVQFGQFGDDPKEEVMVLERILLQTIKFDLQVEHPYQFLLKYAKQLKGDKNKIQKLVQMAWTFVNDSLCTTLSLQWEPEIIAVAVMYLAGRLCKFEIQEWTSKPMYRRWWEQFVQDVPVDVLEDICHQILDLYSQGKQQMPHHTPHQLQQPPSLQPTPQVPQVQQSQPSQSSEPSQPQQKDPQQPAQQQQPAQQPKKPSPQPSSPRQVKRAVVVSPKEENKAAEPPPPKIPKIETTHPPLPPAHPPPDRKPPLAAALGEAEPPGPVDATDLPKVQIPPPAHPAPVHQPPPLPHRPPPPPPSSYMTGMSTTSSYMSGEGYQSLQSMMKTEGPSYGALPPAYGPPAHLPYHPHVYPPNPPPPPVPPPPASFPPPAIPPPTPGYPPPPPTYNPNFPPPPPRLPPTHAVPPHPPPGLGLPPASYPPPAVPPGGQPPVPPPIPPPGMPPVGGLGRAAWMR

Row | SMILES | IC50 [µM] | inhibition at 10 µM [%] | CDK12 % Inhibition @ 10 μM (10 µM) [%] | inhibition at 2 µM (compound at 2 μM (stated in the cell, not the 10 μM of the column head)) [%] | CDK12 % Inhibition @ 10 μM [%]
1 | N#CN1CC=C(c2ccc(CC(=O)Nc3cc(OC4COC4)c(Cl)cn3)cn2)CC1 [Compound 15, N-(5-chloro-4-(oxetan-3-yloxy)pyridin-2-yl)-2-(1′-cyano-1′,2′,3′,6′-tetrahydro-[2,4′-bipyridin]-5-yl)acetamide] | < 0.01 | 96 |  |  | 
2 | CC1(C)CCC(Oc2cc(NC(=O)Cc3ccc(C4=CCN(C#N)CC4)nc3)ncc2Cl)CN1 (stereo not drawn) [Compound 138, N-(5-chloro-4-((6,6-dimethylpiperidin-3-yl)oxy)pyridin-2-yl)-2-(1′-cyano-1′,2′,3′,6′-tetrahydro-[2,4′-bipyridin]-5-yl)acetamide] | > 0.1 | 80 |  |  | 
3 | CNC(=O)C(C)Oc1cc(NC(=O)Cc2ccc(C3CCCN(C#N)C3)nc2)ncc1Cl (single isomer, unassigned) [Compound 88, 2-((5-chloro-2-(2-(6-(1-cyanopiperidin-3-yl)pyridin-3-yl)acetamido)pyridin-4-yl)oxy)-N-methylpropanamide] | > 0.1 |  | 79 |  | 
4 | COc1cc(NC(=O)Cc2ccc(-c3cc(OC4CCN(C)CC4)cc(C#N)n3)nc2)ncc1Cl [Compound 176, N-(5-chloro-4-methoxypyridin-2-yl)-2-(6′-cyano-4′-((1-methylpiperidin-4-yl)oxy)-[2,2′-bipyridin]-5-yl)acetamide] | 0.01 to 0.1 | 96 |  |  | 
5 | COc1cc(NC(=O)Cc2ccc(C3=CCN(C#N)CC3)cn2)ncc1Cl [Compound 127, N-(5-chloro-4-methoxypyridin-2-yl)-2-(1′-cyano-1′,2′,3′,6′-tetrahydro-[3,4′-bipyridin]-6-yl)acetamide] | 0.01 to 0.1 | 86 |  |  | 
6 | CN(C)c1cc(NC(=O)Cc2ccc(C3=CCCN(C#N)C3)nc2)ncc1Cl [Compound 109, N-(5-chloro-4-(dimethylamino)pyridin-2-yl)-2-(1′-cyano-1′,2′,5′,6′-tetrahydro-[2,3′-bipyridin]-5-yl)acetamide] | 0.01 to 0.1 | 89 |  |  | 
7 | Cc1cc(CC(=O)Nc2ccc(Cl)cn2)cnc1C1=CCN(C#N)CC1 [Compound 13, N-(5-chloropyridin-2-yl)-2-(1′-cyano-3-methyl-1′,2′,3′,6′-tetrahydro-[2,4′-bipyridin]-5-yl)acetamide] | 0.01 to 0.1 | 75 |  |  | 
8 | COc1cc(NC(=O)Cc2ccc(-c3cc(C)cc(C#N)n3)nc2)ncc1Cl [Compound 159, N-(5-chloro-4-methoxypyridin-2-yl)-2-(6′-cyano-4′-methyl-[2,2′-bipyridin]-5-yl)acetamide] | 0.01 to 0.1 |  |  | 90 | 
9 | COc1cc(NC(=O)Cc2ccc(-c3cc(OC4CCN(C)C4)cc(C#N)n3)nc2)ncc1Cl (stereo not drawn) [Compound 171, N-(5-chloro-4-methoxypyridin-2-yl)-2-(6′-cyano-4′-((1-methylpyrrolidin-3-yl)oxy)-[2,2′-bipyridin]-5-yl)acetamide] | < 0.01 | 83 |  |  | 
10 | CNC(=O)C(C)Oc1cc(NC(=O)Cc2ccc(C3CCN(C#N)CC3)nc2)ncc1Cl (single isomer, unassigned) [Compound 84, 2-((5-chloro-2-(2-(6-(1-cyanopiperidin-4-yl)pyridin-3-yl)acetamido)pyridin-4-yl)oxy)-N-methylpropanamide] | < 0.01 |  |  |  | 84
11 | N#CN1CC=C(c2ncc(CC(=O)Nc3ccc(Cl)cn3)cc2F)CC1 [Compound 18, N-(5-chloropyridin-2-yl)-2-(1′-cyano-3-fluoro-1′,2′,3′,6′-tetrahydro-[2,4′-bipyridin]-5-yl)acetamide] | 0.01 to 0.1 | 87 |  |  | 
12 | COc1cc(NC(=O)Cc2ccc(-c3cc(C(C)(C)O)cc(C#N)n3)nc2)ncc1Cl [Compound 175, N-(5-chloro-4-methoxypyridin-2-yl)-2-(6′-cyano-4′-(2-hydroxypropan-2-yl)-[2,2′-bipyridin]-5-yl)acetamide] | 0.01 to 0.1 | 97 |  |  | 
